Measured values from patent US9173397B2, “Formulation component” (Syngenta Limited, priority 2011, dated 2015).
Like-named read-outs stand apart in the source and are kept apart here.

Key:
[1] = tested on: Chenopodium album, Abutilon theophrasti, Setaria viridis, Xanthium strumarium; assay: Glasshouse weed kill, fomesafen with/without adjuvants (Example 4); format: in vivo
Experimental: (§1) The efficacy of the aromatic acid ester Morflex ®560 (tri-n-hexyltrimellitate) as an adjuvant for the herbicide fomesafen was tested against four weed species in a glasshouse and compared to the well-know adjuvants, acetyl tributyl citrate and Turbocharge® which were added at concentrations of 0.2 and 0.5% w/w respectively. The adjuvant oils were emulsified using a small amount of the surfactant Pluronic® PE 10500, which was present in the composition at a concentration of 0.02% v/v.
An agrochemical composition was prepared containing 0.2% v/v of the adjuvant in a track sprayer and was applied at a volume of 200 liters per hectare. Fomesafen was applied at either 60 or 120 grams of pesticide per hectare on each of the weed species. The weed species and their growth stage at spraying were Chenopodium album (CHEAL; growth stage 14), Abutilon theophrasti (ABUTH; growth stage 12), Setaria viridis (SETVI; growth stage 13), and Xanthium strumarium (XANST; growth stage 12).
Each spray test was replicated three times. The efficacy of the herbicide was assessed visually and expressed as a percentage of the leaf area killed. Samples were assessed at time periods of 7, 14 and 21 days following application. […]

[2] = tested on: Polygonum convolvulus, Brachiaria platyphylla, Digitaria sanguinalis, Amaranthus tuberculatus; assay: Glasshouse weed kill, mesotrione with/without adjuvants (Example 5); format: in vivo
Experimental: The efficacy of the aromatic ester tri-n-hexyltrimellitate (Morflex®560) was tested in a glasshouse against four weed species using the herbicide mesotrione. An agrochemical composition was prepared containing 0.2% v/v of the adjuvant in a track sprayer and was applied at a volume of 200 liters per hectare. The adjuvant oils were emulsified using a small amount of the surfactant Pluronic® PE 10500, which was present in the composition at a concentration of 0.02% v/v. Mesotrione was applied at either 45 or 90 grams of pesticide per hectare on weeds which had been grown to the 1.3 or 1.4 leaf stage. The weed species were Polygonum convolvulus (POLCO), Brachiaria platyphylla (BRAPL) Digitaria sanguinalis (DIGSA) and Amaranthus tuberculatus (AMATU).
Each spray test was replicated three times. The efficacy of the herbicide was assessed visually and expressed as a percentage of the leaf area killed. Samples were assessed at time periods of 7, 14 and 21 days following application. The results shown in Table 6 below are mean averages over the two rates of mesotrione, three relicates, four weed species and the three assessment timings and are compared to the efficacy of mesotrione in the absence of an adjuvant, and mesotrione in the presence of the commercially available adjuvants acetyl tributyl citrate or Tween®20 which were used at concentrations of 0.2 and 0.5% w/w respectively.

[3] = tested on: Abutilon theophrasti, Chenopodium album, Digitaria sanguinalis, Setaria viridis; assay: Glasshouse weed kill, nicosulfuron with/without adjuvants (Example 3); format: in vivo
Experimental: as §1, with “nicosulfruon” for “fomesafen”, “adjuvants, tris-2-ethylhexyl phosphate and” for “adjuvants,”, “citrate” for “citrate and Turbocharge®”, “tested” for “added”, “0.2% w/w.” for “0.2 and 0.5% w/w respectively.”
An agrochemical composition was prepared containing 0.2% v/v of the adjuvant in a track sprayer, and was applied at a volume of 200 liters per hectare. Nicosulfuron was applied at a rate of either 30 or 60 grams of pesticide per hectare. The weed species and their growth stage at spraying were Abutilon theophrasti (ABUTH; growth stage 13), Chenopodium album (CHEAL; growth stage 14), Digitaria sanguinalis (DIGSA; growth stage 13), and Setaria viridis (SETVI; growth stage 13).
Each spray test replicated three times. The efficacy of the herbicide was assessed visually and expressed as a percentage of the leaf area killed. Samples were assessed at time periods of 14 and 21 days following application. […]

[4] = tested on: Alopecurus myosuroides, Avena fatua, Lolium perenne, Setaria viridis; assay: Glasshouse weed kill, pinoxaden with/without adjuvants (Example 6); format: in vivo
Experimental: The efficacy of the aromatic ester tri-n-hexyltrimellitate (Morflex®560) was tested in a glasshouse against four weed species using the herbicide pinoxaden. An agrochemical composition was prepared containing 0.2% v/v of the adjuvant in a track sprayer and was applied at a volume of 200 liters per hectare. The adjuvant oils were emulsified using a small amount of the surfactant Pluronic® PE 10500, which was present in the composition at a concentration of 0.02% v/v. Pinoxaden was applied at either 7.5 or 15 grams of pesticide per hectare on each of the weed species. The weed species and their growth stage at spraying were Alopecurus myosuroides (ALOMY; growth stage 13), Avena fatua (AVEFA; growth stage 12); Lolium perenne (LOLPE; growth stage 13), Setaria viridis (SETVI; growth stage 14).
Each spray test was replicated three times. The efficacy of the herbicide was assessed visually and expressed as a percentage of the leaf area killed. Samples were assessed at time periods of 14 and 21 days following application. The results shown in table 7 below are mean averages over the two rates of pinoxaden, three replicates, four weed species and the two assessment timings, and are compared to the efficacy of pinoxaden in the absence of adjuvant and pinoxaden in the presence of the known adjuvant acetyl tributyl citrate which was used at a concentration of 0.2% w/w.

[5] = tested on: Tetranychus urticae; assay: Mortality of two spotted spider mite on French bean plants, abamectin with/without Morflex 560; format: in vivo, Tetranychus urticae (on Phaseolus vulgaris); settings: for % mortality of Tetranychus urticae: 10 days, larva and adults averaged, Morflex 560 0.1% v/v where present
Experimental: The efficacy of tri-n-hexyltrimellitate (Morflex® 560) as an adjuvant in compositions containing abamectin was tested and compared to the efficacy of abamectin compositions which lack this type of adjuvant. The Morflex 560 was present at 0.1% v/v in the abamectin compositions. The surfactants polyoxyethylene sorbitan monooleate and an ethoxylated castor oil were also present in all the abamectin compositions tested. Two week old French bean (Phaseolus vulgaris) plants were infested with a mixed population of two spotted spider mite Tetranychus urticae. One day after infestation the plants were treated with the test compositions, with a track sprayer from the top with a rate of 200 liters per hectare. Plants were incubated in the greenhouse for 10 days and the evaluation was done on mortality against Larva and Adults, just on the lower side (untreated) of the leaves. Each experiment was replicated twice and the results were averaged. The mortality against Larva and Adults was then averaged.

[6] = tested on: Septoria tritici; assay: Septoria tritici infection of wheat plants, isopyrazam spray with/without adjuvants; format: in vivo, Septoria tritici (on wheat plants); settings: conclusion from Table 2
Experimental: The efficacy of the following aromatic acid esters tri-n-hexyltrimellitate (Morflex®560) and tri-isodecyl trimellitate (Morflex®530), as adjuvants in compositions comprising isopyrazam was tested and compared to the standard formulations (both EC and SC) of the fungicide, which lack this type of adjuvant.
Wheat plants were inoculated with the fungus Septoria tritici. Five days after inoculation the plants were sprayed with a diluted emulsion concentrate or suspension concentrate formulation of the fungicide isopyrazam at rates of 3, 10, 30 and 100 mg of the fungicide per litre of spray solution, using a laboratory track sprayer which delivered the spray at a rate of 200 liters per hectare. Spray tests were also carried out with diluted suspension concentrate additionally comprising each of the benzoate adjuvants described above. These adjuvants were added to the spray solution at a rate of 0.5% w/w, based on the quantity of spray liquor. The adjuvant oils were emulsified using a small amount of the surfactant Pluronic® PE 10500, which was present in the composition at a concentration of 0.02% v/v. The leaves of the plants were assessed visually 14 days after the spray application and the damage was expressed as the percentage of the leaf area infected.

[7] = tested on: Alopecurus myosuroides, Avena fatua, Lolium perenne, Setaria viridis; assay: Glasshouse weed kill, pinoxaden with/without adjuvants (Example 8); format: in vivo; settings: for adjuvant efficacy in words (pinoxaden): conclusion from Table 9
Experimental: The efficacy of the aromatic esters tri-n-hexyltrimellitate (Morflex®560) and tri-isodecylmellitate (Morflex®530) as adjuvants for pinoxaden were tested in a glasshouse against four weed species. An agrochemical composition was prepared containing 0.2% v/v of the adjuvant in a track sprayer and was applied at a volume of 200 liters per hectare. Pinoxaden was applied at either 7.5 or 15 grams per hectare on each of the weed species. The weed species and their growth stage at spraying were Alopecurus myosuroides (ALOMY; growth stage 13), Avena fatua (AVEFA; growth stage 12); Lolium perenne (LOLPE; growth stage 13), Setaria viridis (SETVI; growth stage 14).
Each spray test was replicated three times. The efficacy of the herbicide was assessed visually and expressed as a percentage of the leaf area killed. Samples were assessed at time periods of 7 and 14 days following application. The results shown in Table 9 below are mean averages over the two rates of pinoxaden, three replicates, four weed species and the two assessment timings. The results were compared to the efficacy of pinoxaden in the absence of an adjuvant and pinoxaden in the presence of either tri-2-ethylhexyl phosphate (applied at 0.5% v/v) or methyl oleate (applied at 0.2% v/v).

[8] = tested on: Abutilon theophrasti, Chenopodium album, Digitaria sanguinalis, Setaria viridis; format: in vivo; settings: for adjuvant efficacy in words (nicosulfuron): conclusion from Table 8
Experimental: The efficacy of the aromatic esters tri-n-hexyltrimellitate (Morflex®560) and tri-isodecylmellitate (Morflex®530) as adjuvants for nicosulfuron were tested in a glasshouse against four weed species. An agrochemical composition was prepared containing 0.2% v/v of the adjuvant in a track sprayer, and was applied at a volume of 200 liters per hectare. The adjuvant oils were emulsified using a small amount of the surfactant Pluronic® PE 10500, which was present in the composition at a concentration of 0.02% v/v. Nicosulfuron was applied at a rate of either 30 or 60 grams per hectare. The weed species and their growth stage at spraying were Abutilon theophrasti (ABUTH; growth stage 13), Chenopodium album (CHEAL; growth stage 14), Digitaria sanguinalis (DIGSA; growth stage 13), and Setaria viridis (SETVI; growth stage 13).
Each spray test was replicated three times. The efficacy of the herbicide was assessed visually and expressed as a percentage of the leaf area killed. Samples were assessed at time periods of 14 and 21 days following application. […] In this experiment Atplus®411F was added at the higher rate of 0.5% v/v. The other adjuvants were added at 0.2% v/v.

CS(=O)(=O)NC(=O)c1cc(Oc2ccc(C(F)(F)F)cc2Cl)ccc1[N+](=O)[O-] [Fomesafen, reference compound]
Mean percentage kill, mean across species ([1]; % leaf area killed, mean over fomesafen 60 and 120 g/ha, 7, 14 and 21 days, four species, adjuvant 0.2% (Turbocharge 0.5% w/w)): 22.5 D %

CCCCCCOC(=O)c1ccc(C(=O)OCCCCCC)c(C(=O)OCCCCCC)c1 [Tri-n-hexyltrimellitate, Tri-n-hexyl trimellitate]
adjuvant efficacy in words (mesotrione) ([2]; conclusion from Table 6): as effective an adjuvant as either acetyl tributyl citrate or Tween®20
adjuvant efficacy in words (nicosulfuron) ([3]; conclusion from Table 4): as effective an adjuvant as either tris-2-ethylhexylphosphate or acetyl tributyl citrate
adjuvant efficacy in words (pinoxaden) ([4]; conclusion from Table 7): more effective an adjuvant than acetyl tributyl citrate
mortality of Tetranychus urticae ([5]; composition without abamectin, 0.1% v/v Morflex 560): no mortality was observed
adjuvant efficacy in words (abamectin, Tetranychus urticae) ([5]; conclusion from Table 10): provided effective control of Tetranychus urticae at much lower concentrations of abamectin than are required in the absence of adjuvant
adjuvant efficacy in words (isopyrazam, S. tritici) [6]: as efficacious as the commercial tank mix adjuvant Turbocharge®
adjuvant efficacy in words (pinoxaden) [7]: increases the efficacy of pinoxaden
adjuvant efficacy in words (fomesafen) ([1]; conclusion from Table 5): as effective an adjuvant as Turbocharge® and better than acetyl tributyl citrate
adjuvant efficacy in words (nicosulfuron) [8]: more effective an adjuvant than methyl oleate and as effective an adjuvant as Atplus®411F

CS(=O)(=O)c1ccc(C(=O)C2C(=O)CCCC2=O)c([N+](=O)[O-])c1 [Mesotrione, reference compound]
Mean percentage kill, mean across species ([2]; % leaf area killed, mean over mesotrione 45 and 90 g/ha, 7, 14 and 21 days, four species, adjuvant 0.2% (Tween 20 0.5% w/w)): 34.0 B %

COc1cc(OC)nc(NC(=O)NS(=O)(=O)c2ncccc2C(=O)N(C)C)n1 [Nicosulfuron, reference compound]
Mean percentage kill, mean across species ([3]; % leaf area killed, mean over nicosulfuron 30 and 60 g/ha, 14 and 21 days, four species, adjuvant 0.2%): 42.5 B %
Mean percentage kill, mean across species ([8]; % leaf area killed, mean over nicosulfuron 30 and 60 g/ha, 14 and 21 days, four species, adjuvant 0.2% v/v (Atplus 411F 0.5% v/v)): 31.1 E %

Abamectin
% mortality of Tetranychus urticae ([5]; abamectin 0.2 ppm): 0%
% mortality of Tetranychus urticae ([5]; abamectin 0.4 ppm): 0%
% mortality of Tetranychus urticae ([5]; abamectin 0.8 ppm): 27%
% mortality of Tetranychus urticae ([5]; abamectin 1.5 ppm): 70%
% mortality of Tetranychus urticae ([5]; abamectin 3 ppm): 95%

CC(C)CCCCCCCOC(=O)c1ccc(C(=O)OCCCCCCCC(C)C)c(C(=O)OCCCCCCCC(C)C)c1 [Tri-isodecyl trimellitate]
adjuvant efficacy in words (isopyrazam, S. tritici) [6]: as efficacious as the commercial tank mix adjuvant Turbocharge®
adjuvant efficacy in words (pinoxaden) [7]: increases the efficacy of pinoxaden
adjuvant efficacy in words (nicosulfuron) [8]: increases the efficacy of the herbicide nicosulfuron

CCc1cc(C)cc(CC)c1-c1c(OC(=O)C(C)(C)C)n2n(c1=O)CCOCC2 [Pinoxaden, reference compound]
Mean percentage kill, mean across species ([4]; % leaf area killed, mean over pinoxaden 7.5 and 15 g/ha, 14 and 21 days, four species, adjuvant 0.2%): 11.4 C %
Mean percentage kill, mean across species ([7]; % leaf area killed, mean over pinoxaden 7.5 and 15 g/ha, 7 and 14 days, four species, adjuvant 0.2% v/v (tri-2-ethylhexyl phosphate 0.5% v/v)): 2.3 D %
